# From US20260283924A1, “TOPICAL COMPOSITIONS FOR PROMOTING HAIR GROWTH” (ESTETRA SRL, priority 2023, published 2026)
# Legend:
# [1] = test system: human anagen VI scalp HFs; test: LDH release into the medium (cytotoxicity), healthy donor hair follicle organ culture; format: cell-based; settings: all tested concentrations (300 nM, 3 μM, 30 μM)
# Experimental: (§1) 12-44 full-length frontotemporal hair follicles (HF) were obtained from four healthy human female donors >50 years old. […] Donor 2:29; Donor 3:44; Donor 4:32). After microdissection from skin as described in the art (Edelkamp et al., Methods Mol Biol, 2020, 2154:105-119; and Langan et al., Exp Dermatol, 2015 December; 24(12):903-1), HFs were placed in adequate culture medium and allowed a 24 h rest period to allow them to recover from the trauma of microdissection. Test substance (either vehicle (0.3% EtOH) or E4 at concentrations of 30 μM, 3 μM or 300 nM) was added to the medium at the end of the 24 h. Total culturing time was 5-9 days depending on the stage of the HFs in the vehicle group. The experimental design for a 6-days HF organ culture experiment is depicted in FIG. 9.
# LDH is released from the cytoplasm of damaged cells into the culture medium. Therefore, the cytotoxicity of agents can be estimated based on the activity of LDH present in the culture medium using a colorimetric assay (Cytotoxicity Detection Kit [LDH], Roche) as described (Gherardini et al Int J Cosmet Sci, 2019 April; 41(2):164-182). The measurements were performed on supernatants collected on days respective to each culture and normalized to blank.
# For the maximum release, HFs were treated with 1% Triton X 100 in vehicle medium at 37° C. for 30 minutes in order to induce maximum LDH release into the medium.
# [2] = test system: human anagen VI scalp HFs (healthy female donors); test: Healthy female donor hair follicle organ culture (ex vivo model), Example 7; format: cell-based; settings: for hair shaft production: vs vehicle
# Experimental: as §1
# This model allows to assess if E4 treatment is able to prolong anagen and/or to delay catagen initiation in healthy female subjects. Clinically, hair loss is associated with a reduction of HFs in anagen or with a shortening of anagen duration. Promoting anagen might thus limit hair loss. The following parameters were investigated:
# To determine the HF length, each HF was measured from the end of the bulb connective tissue sheath to the end of the distal outer root sheath (ORS), using a digital light microscope at 50× magnification (VHX 900 Keyence Corporation, Osaka, Japan) and the affiliated software (Edelkamp et al., Methods Mol Biol, 2020, 2154:105-119; and Langan et al., Exp Dermatol, 2015 December; 24(12):903-1). Measurements were obtained at baseline, after 24 h rest period and subsequently every 24-48 h during the entire duration of the experiment. Elongation is expressed as millimeters of growth and/or as percentage elongation from the baseline measurement.
# Hair cycle staging and calculation of hair cycle score is indicative of hair cycle progression and anagen-catagen transition (Langan et al., Exp Dermatol, 2015). Hair cycle staging and hair cycle scoring was performed at the end of the culture. The hair cycle stage of each HF was determined according to several established macroscopic and microscopic parameters (Langan et al Exp Dermatol, 2015). Microscopic hair cycle staging was determined using Ki-67/TUNEL immunohistology and Masson-Fontana histochemistry. Hair cycle staging was analyzed by calculating the percentage of HFs in each hair cycle stage. Hair cycle score was determined by giving an arbitrary score to each hair cycle stage as following: anagen: 100, early catagen: 200, mid catagen: 300, late catagen: 400, dystrophic 500.
# Germinative hair matrix keratinocytes proliferate mostly during anagen. […] Apoptosis of hair matrix keratinocytes is used as an additional indicator of anagen/catagen transition.
# Proliferation was assessed by quantification of the percentage of hair matrix keratinocytes in a clearly specified area (germinative hair matrix keratinocytes, below the Auber's line) that were positive for the proliferation marker Ki67, whereas apoptosis was assessed using TUNEL (TdT-mediated dUTP-biotin nick-end labelling) immunofluorescence in the same keratinocyte population (below the Auber's line) and in the precortical hair matrix keratincoytes (above the Auber's line) (Langan et al., Exp Dermatol 2015) (FIG. 11).
# Alkaline phosphatase is an indicator of DP inductivity (Yang, J Dermatol Sci, 2010 January; 57(1):2-11). Alkaline phosphatase in situ activity was measured in the DP.
# Versican, a large chondroitin sulfate proteoglycan molecule, is expressed in DP in anagen HFs and diminishes in catagen HFs and its expression correlates with hair inductive properties (Yang, J Dermatol Sci 2010). Versican intensity was analyzed in the DP.
# CD34 is a marker expressed by the progeny of HF bulge stem cells. It is expressed in the most external layer of the outer root sheet (ORS) below the isthmus (sub-bulge to suprabulbar regions) (Purba et al., BioEssays, 2014 May; 36(5):513-25). […]
# [3] = test system: occipital hair follicles (healthy donor); test: Healthy donor hair follicle organ culture (ex vivo model), Example 8; format: cell-based, human; settings: for K15 expression in the suprabulbar outer root sheath / number of cells (K15) in the suprabulbar outer root sheath: 300 nM; for density of cells in the dermal cup of anagen HFs / density of cells in the dermal papilla / density of cells in the dermal papilla stalk / hair matrix keratinocyte proliferation / total number of cells in the dermal cup of anagen HFs / total number of cells in the dermal papilla / total number of cells in the dermal papilla stalk: 3 μM
# Experimental: In brief, 24 full-length occipital hair follicles (HF) were obtained from one healthy donor. […] Test substance (either vehicle (0.03% EtOH), E2 at concentration of 300 nM or E4 at concentrations of 3 μM or 300 nM) was added to the medium at the end of the 24 h. Total culturing time was 5 days depending on the stage of the HFs in the vehicle group. The experimental design is depicted in FIG. 23.
# [4] = 300 nM and 30 μM, tendentially vs vehicle
# [5] = 300 nM, 3 μM, 30 μM, listed as Estetrol
# [6] = 3 μM, significantly vs vehicle, listed as estetrol
# [7] = 300 nM and 3 μM, listed as Estetrol
compound,measurement,setting,value
"C[C@]12CC[C@@H]3c4ccc(O)cc4CC[C@H]3[C@@H]1[C@@H](O)[C@@H](O)[C@@H]2O [Formulation E4, 1,3,5 (10)-estratrien-3,15alpha,16alpha,17beta-tetrol]",HF cytotoxicity (LDH release into the medium),[1],did not induce HF cytotoxicity
same,HF cytotoxicity (LDH release into the medium),[1]; listed as Estetrol,does not induce LDH release into the medium
same,total number of cells in the DP stalk,[2]; 300 nM and 3 μM,significantly reduced the total number of cells in the DP stalk
same,hair matrix keratinocytes proliferation (Ki-67),[2]; [4],increased hair matrix keratinocytes proliferation
same,microscopic hair cycle staging: anagen,[2]; [4],prolonged anagen
same,"percentage of CD34 positive cells, suprabulbar ORS",[2]; [4],increased the percentage of CD34 positive cells
same,microscopic hair cycle staging: anagen,"[2]; 300 nM and 30 μM, tendentially vs vehicle, listed as estetrol",maintain longer HFs in anagen
same,density of cells in the inductive dermal cup,"[2]; 300 nM, 3 μM, 30 μM",no significant impact on the density of cells in the inductive dermal cup
same,hair matrix keratinocytes apoptosis (TUNEL),"[2]; 300 nM, 3 μM, 30 μM",without affecting hair matrix keratinocytes apoptosis
same,"percentage of K15 positive cells, suprabulbar ORS","[2]; 300 nM, 3 μM, 30 μM",did not have any effect on the percentage of K15 positive cells
same,hair matrix keratinocytes apoptosis (TUNEL),[2]; [5],apoptosis was not affected
same,hair shaft production,"[2]; 300 nM, 3 μM, 30 μM",did not modify hair shaft production
same,hair shaft production,[2]; [5],does not impact hair shaft production
same,"proliferation of K15 positive cells (Ki-67), suprabulbar ORS","[2]; 300 nM, significantly vs vehicle",decreased their proliferation
same,"percentage of K15 positive cells, bulge basal layer",[2]; 3 μM,significantly decreased the percentage of K15 positive cells
same,"proliferation of K15 positive cells (Ki-67), bulge basal layer","[2]; 3 μM and 300 nM, tendentially vs vehicle",increased their proliferation
same,hair matrix keratinocytes proliferation (Ki-67),"[2]; 3 μM, significantly vs vehicle",increased hair matrix keratinocytes proliferation
same,microscopic hair cycle staging: anagen,"[2]; 3 μM, significantly vs vehicle",prolonged anagen
same,"percentage of CD34 positive cells, suprabulbar ORS","[2]; 3 μM, significantly vs vehicle",increased the percentage of CD34 positive cells
same,hair matrix keratinocytes proliferation (Ki-67),[2]; [6],increases hair matrix keratinocytes proliferation
same,microscopic hair cycle staging: anagen,[2]; [6],maintain longer HFs in anagen
same,"proliferation of K15 positive cells (Ki-67), suprabulbar ORS","[2]; 3 μM, tendentially vs vehicle",decreased their proliferation
same,"proliferation of K15 positive cells (Ki-67), bulge basal layer","[2]; 30 μM, significantly vs vehicle",increased their proliferation
same,density of cells in the DP stalk,[2]; all concentrations,tendentially decreased the density of cells
same,alkaline phosphatase activity in DP cells,[2]; all tested concentrations,tendentially increased
same,density of cells in the DP,[2]; all tested concentrations,did not strikingly affect the density of cells in the DP
same,versican expression in DP cells,[2]; all tested concentrations,tendentially increased versican expression
same,K15 expression in the suprabulbar outer root sheath,[3],tendentially increased
same,number of cells (K15) in the suprabulbar outer root sheath,[3],tendentially increased
same,area of the dermal papilla,[3]; 300 nM and 3 μM,increased
same,hair shaft production (reduction vs vehicle),[3]; 300 nM and 3 μM,tendentially
same,microscopic hair cycle: anagen,[3]; 300 nM and 3 μM,maintained HFs in anagen
same,number of CD34+ cells in the suprabulbar outer root sheath,[3]; 300 nM and 3 μM,decreased
same,area of the dermal papilla,[3]; [7],increases the area
same,microscopic hair cycle: anagen,[3]; [7],maintain hair follicles in anagen
same,number of CD34+ cells in the suprabulbar outer root sheath,[3]; [7],decreases the number of CD34+ cells
same,K15 expression in the suprabulbar outer root sheath,[3]; listed as estetrol,tendentially increase K15 expression
same,number of cells (K15) in the suprabulbar outer root sheath,[3]; listed as estetrol,tendentially increase
same,density of cells in the dermal cup of anagen HFs,[3],significantly decreased
same,density of cells in the dermal papilla,[3],tendentially decreased
same,density of cells in the dermal papilla stalk,[3],decreased
same,hair matrix keratinocyte proliferation,[3],tendentially increased
same,total number of cells in the dermal cup of anagen HFs,[3],significantly decreased
same,total number of cells in the dermal papilla,[3],tendentially decreased
same,total number of cells in the dermal papilla stalk,[3],decreased
same,microscopic hair cycle: anagen maintenance,[3]; 3 μM compared with 300 nM,even more prominently
same,density of cells in the dermal cup of anagen HFs,[3]; listed as Estetrol,significantly decreases
same,density of cells in the dermal papilla,[3]; listed as Estetrol,tendentially decreases
same,density of cells in the dermal papilla stalk,[3]; listed as Estetrol,decreases the density of cells in the dermal papilla stalk
same,hair matrix keratinocyte proliferation,[3]; listed as Estetrol,increased
same,total number of cells in the dermal cup of anagen HFs,[3]; listed as Estetrol,significantly decreases
same,total number of cells in the dermal papilla,[3]; listed as Estetrol,tendentially decreases
same,total number of cells in the dermal papilla stalk,[3]; listed as Estetrol,tendentially
